Experimental data reported in US7591995B2, “Cobalamin conjugates useful as imaging and therapeutic agents” (Mayo Foundation for Medical Education and Research, priority 1999, dated 2009).

Tests used:
[1] = tested on: unsaturated B12 binding capacity (UBBC); details: relative to cyanocobalamin; J. Nucl. Med. 38, 717-723 (1997), US 5,739,313; cited from earlier work
[2] = tested on: unsaturated B12 binding capacity (UBBC); details: relative to cyanocobalamin
[3] = Specific activity of radiolabeled cobalamin DTPA conjugates; details: poly-DTPA complex, increased versus mono-DTPA compounds

Substance | in vitro biological activity (UBBC), comparison to cyanocobalamin [1] | in vitro biological activity (UBBC) when compared to cyanocobalamin [2] | specific activity [3]
cyanocobalamin-DTPA | 66.4% | – | –
cyanocobalamin-poly-L-lysine | – | 92% | –
cyanocobalamin-poly-L-lysine-polyDTPA | – | 43.4% | 4.5 mCi
